{
  "source": "patent US6884577B2",
  "about": "“Methods for screening compounds for estrogenic activity” (The Regents of the University of California, priority 1993, dated 2005)",
  "key": {"[1]": {"system": "ER at the AP1 site of the human collagenase promoter, ERC1 cells", "experiment": "Collagenase promoter-CAT reporters (Δcoll73, Δcoll60) in ERC1 cells", "format": "cell-based", "protocol": "FIGS. 1A and 1B show estrogen stimulation mediated by an AP1 site in ERC1 cells (FIG. 1A) and F9 cells (FIG. 1B). Typical results of CAT assays, normalized for transfection efficiency, following a single transfection are shown opposite. Each point is the mean value of triplicate assays, with standard errors. CAT activities from cells maintained in the absence of hormone are shown as white bars, those in the presence of a saturating concentration (100 nM) of estradiol as black bars.\nCAT assays were carried out as described in Webb et al., except that the cells were harvested one to two days after transfection instead of three. CAT activities were defined as the increase in cpm per hour at room temperature (corrected for background) per 100 μl of cell extract, normalized to production of 100 standard units of βHCG, from a co-transfected reporter gene, actin-HCG. Luciferase assays were performed as described by Brasier et al. Methods Enzymol 216:386-97 (1992)) on similar extracts that were used for CAT assays. Light units were defined as the luciferase activity per 100 μl of cell extract per 100 standard units of βHCG. Relative luciferase activities were calculated with respect to the results that were obtained in the absence of ER and hormone, which was set at 1 unit. For the data presented in Table I triplicate points were determined. Standard deviations were less than 20%. […]"}, "[2]": {"system": "CHO cells, which lack functioning ER", "experiment": "Negative control: estrogen-responsive reporter constructs in CHO cells which lack functioning ER", "format": "cell-based", "details": "same estrogen-responsive reporter constructs", "from_the_text": "To examine whether the series 4 compounds induce estrogenic activity through the ER, we tested the ability of ICI 164384 to inhibit the series 4 estrogenic activity. […] As a negative control, CHO cells, which lack functioning ER, were transfected with the same estrogen-responsive reporter constructs and treated with 17β-estradiol and the series 4 hydroxystilbenes."}, "[3]": {"system": "ER at the AP-1 site of the collagenase promoter", "experiment": "Collagenase promoter reporter in cells that express endogenous ER (Ishikawa, MCF-7, ZR-75-1)", "format": "cell-based", "experimental": "Left panel, coll73-CAT response with endogenous ER contrasted with the response of an ERE regulated reporter, ERE-coll60CAT. Right panel, coll73-LUC response with 3 μg co-transfected expression vector for human ER. Averages of three individual experiments are shown. […] A single representative experiment with triplicate hormone treatments is shown.\n(§3) To further explore this phenomenon, and to test whether similar hormone effects could be detected at physiological levels of ER, the expression of the collagenase promoter in cells that express endogenous ER was examined."}, "[4]": {"system": "human ER at the AP-1 site (collagenase promoter, AP-1-tk), HeLa cells", "experiment": "CAT assays of HeLa cells transfected with AP-1 site reporter genes and human ER expression vector", "format": "cell-based", "details": "transiently expressed human ER, FIG. 2A", "protocol": "Representations, at left, show the human collagenase promoter (shaded) and the consensus AP-1 site. […] CAT activity is normalized to a transfection control with the actin promoter driving expression of βHCG. Single representative experiments are shown, error bars represent standard deviation of triplicate hormone treatments.\n(§1) Cells were maintained and transfected as previously described in Webb et al., supra. […] F9 cells were seeded at 30% confluence upon 1.5 cm dishes and transfected overnight by calcium phosphate coprecipitation with 5 μg reporter gene, 1 μg actin β-HCG, and 1 μg of HEO, 300 ng each of c-jun and c-fos expression vectors. The cells were glycerol shocked and refed in growth medium containing hormone or ethanolic vehicle.\n(§2) CAT assays were carried out as described in Webb et al., except that the cells were harvested one to two days after transfection instead of three. CAT activities were defined as the increase in cpm per hour at room temperature (corrected for background) per 100 μl of cell extract, normalized to production of 100 standard units of βHCG, from a co-transfected reporter gene, actin-HCG. […] Light units were defined as the luciferase activity per 100 μl of cell extract per 100 standard units of βHCG. Relative luciferase activities were calculated with respect to the results that were obtained in the absence of ER and hormone, which was set at 1 unit. For the data presented in Table I triplicate points were determined.\nTo further examine the effects of antiestrogens on the AP-1 directed pathway, reporter genes derived from the human collagenase promoter were transfected into HeLa cells."}, "[5]": {"system": "human ER at the AP-1 site of the collagenase promoter (coll73)", "experiment": "Coll73-LUC luciferase reporter (collagenase promoter with AP-1 site) in cells transfected with human ER expression vector HEO", "format": "cell-based", "details": "relative to no ER", "protocol": "All reporter genes described below have been modified by digestion with EcoR I and Ndel to remove a AP-I site in the backbone of pUG. […] Coll73-LUC was constructed by cloning a BamHI/Pvull fragment, that spanned the luciferase transcription unit, from pMG3 into coll73, which had been digested with BamHI and SmaI to remove the CAT transcription unit.\nas §1, §2\nIn each case, the cells were transfected with different amounts of the human ER expression vector HEO to determine the optimal response."}, "[6]": {"system": "ER at classical ERE, Ishikawa cells", "experiment": "ERE-coll60CAT reporter in Ishikawa cells", "format": "cell-based", "text": "Left panel, coll73-CAT response with endogenous ER contrasted with the response of an ERE regulated reporter, ERE-coll60CAT. […] Averages of three individual experiments are shown. […] A single representative experiment with triplicate hormone treatments is shown.\nas §3"}, "MCF-7 cell": {"system": "MCF-7 cell", "details": "Braacke et al. 1991; cited from earlier work"}},
  "data": [
    {"smiles": "C[C@]12CC[C@@H]3c4ccc(O)cc4CC[C@H]3[C@@H]1CC[C@@H]2O", "note": "[estradiol, 17β-estradiol]", "values": [
      {"measurement": "estrogen response of Δcoll60 (AP1 site removed)", "setting": "[1]", "result": "no estrogen response"},
      {"measurement": "stimulation of Δcoll73 (CAT)", "setting": "[1]; 100 nM estradiol, FIG. 1A", "result": "ten fold"},
      {"measurement": "estrogenic activity in cells lacking functioning ER", "setting": "[2]", "result": "no estrogenic activity"},
      {"measurement": "activation of the collagenase promoter (coll73-CAT)", "setting": "[3]; Ishikawa cells, endogenous receptor, FIG. 4A", "result": "activated"},
      {"measurement": "induction of the collagenase promoter (coll73-LUC)", "setting": "[3]; Ishikawa cells, receptor levels raised by transfection", "result": "inductions became larger"},
      {"measurement": "activation of the collagenase promoter", "setting": "[3]; MCF-7 cells, endogenous ER, FIG. 4B", "result": "activated"},
      {"measurement": "activation of the collagenase promoter", "setting": "[3]; ZR-75-1 cells", "result": "The same pattern occurred"},
      {"measurement": "activation of the collagenase promoter (coll517, coll73)", "setting": "[4]", "result": "activated"},
      {"measurement": "Coll73 Luciferase Activity", "setting": "[5]; CEF (fibroblast), no hormone, saturating hormone", "result": 2.5},
      {"measurement": "Coll73 Luciferase Activity", "setting": "[5]; CHO (ovary), no hormone, saturating hormone", "result": 3.3},
      {"measurement": "Coll73 Luciferase Activity", "setting": "[5]; CV-1 (kidney), no hormone, saturating hormone", "result": 2.2},
      {"measurement": "Coll73 Luciferase Activity", "setting": "[5]; F9 (teratocarcinoma), no hormone, unliganded ER gave 3.2", "result": 1.4},
      {"measurement": "Coll73 Luciferase Activity", "setting": "[5]; HELA (cervix), no hormone = 1, ICI 1 μM, tamoxifen 5 μM, estradiol 100 nM", "result": 3.4},
      {"measurement": "Coll73 Luciferase Activity", "setting": "[5]; HEP G2 (liver), no hormone, saturating hormone", "result": 4.3},
      {"measurement": "Coll73 Luciferase Activity", "setting": "[5]; MDA453 (breast), no hormone, saturating hormone", "result": 8.4},
      {"measurement": "Coll73 Luciferase Activity", "setting": "[5]; NIH 3T3 (fibroblast), no hormone, saturating hormone", "result": 3.3},
      {"measurement": "Coll73 Luciferase Activity", "setting": "[5]; SHM (myometrium), no hormone, saturating hormone", "result": 2.0},
      {"measurement": "Coll73 Luciferase Activity", "setting": "[5]; SY5Y (neuroblastoma), no hormone, saturating hormone", "result": 2.1},
      {"measurement": "expression of ERE-coll60", "setting": "[6]", "result": "tenfold"},
      {"measurement": "MCF-7 cell invasion activity of a re-constituted basement membrane", "setting": "MCF-7 cell", "result": "stimulated"}
    ]}
  ]
}
